The text below walks through data of ChEMBL document CHEMBL4613273, “Discovery of Aryl Formyl Piperidine Derivatives as Potent, Reversible, and Selective Monoacylglycerol Lipase Inhibitors” (J Med Chem, 2020).

A value given as a limit tells only on which side of the number the result lay.

One experiment deals with T1, Monoglyceride lipase (Homo sapiens, UniProt Q99685).
T1 sequence (Q99685 whole entry): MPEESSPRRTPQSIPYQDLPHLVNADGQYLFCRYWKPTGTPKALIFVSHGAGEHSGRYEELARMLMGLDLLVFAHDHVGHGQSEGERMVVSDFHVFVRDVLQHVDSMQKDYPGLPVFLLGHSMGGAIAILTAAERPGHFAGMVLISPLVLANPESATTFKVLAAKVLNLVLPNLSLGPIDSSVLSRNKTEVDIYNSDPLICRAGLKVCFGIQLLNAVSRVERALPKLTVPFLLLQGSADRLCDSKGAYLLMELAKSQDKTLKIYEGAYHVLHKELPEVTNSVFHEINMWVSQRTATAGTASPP
The experiment in a line: Inhibition of human recombinant MAGL pre-incubated for 5 mins before MAGL substrate addition and further incubated for 10 mins.

The test system of experiment [1] is Mus musculus. The experiment is described as follows: Antidepressant activity in ICR mouse model of reserpine-induced depression assessed as immobility time at 5 mg/kg, ig by tail suspension test (reference value: 132.38 +/- 44.51 secs). In kind it is functional.
The test system of experiment [2] is Mus musculus. The experiment is described as follows: Antidepressant activity in ICR mouse model of reserpine-induced depression assessed as immobility time at 5 mg/kg, ig by forced swim test (reference value: 136.84 +/- 46.69 secs). In kind it is functional.
Experiment [3] concerns the target T2, Fatty-acid amide hydrolase 1 (Rattus norvegicus, UniProt P97612).
T2 sequence (P97612 whole entry): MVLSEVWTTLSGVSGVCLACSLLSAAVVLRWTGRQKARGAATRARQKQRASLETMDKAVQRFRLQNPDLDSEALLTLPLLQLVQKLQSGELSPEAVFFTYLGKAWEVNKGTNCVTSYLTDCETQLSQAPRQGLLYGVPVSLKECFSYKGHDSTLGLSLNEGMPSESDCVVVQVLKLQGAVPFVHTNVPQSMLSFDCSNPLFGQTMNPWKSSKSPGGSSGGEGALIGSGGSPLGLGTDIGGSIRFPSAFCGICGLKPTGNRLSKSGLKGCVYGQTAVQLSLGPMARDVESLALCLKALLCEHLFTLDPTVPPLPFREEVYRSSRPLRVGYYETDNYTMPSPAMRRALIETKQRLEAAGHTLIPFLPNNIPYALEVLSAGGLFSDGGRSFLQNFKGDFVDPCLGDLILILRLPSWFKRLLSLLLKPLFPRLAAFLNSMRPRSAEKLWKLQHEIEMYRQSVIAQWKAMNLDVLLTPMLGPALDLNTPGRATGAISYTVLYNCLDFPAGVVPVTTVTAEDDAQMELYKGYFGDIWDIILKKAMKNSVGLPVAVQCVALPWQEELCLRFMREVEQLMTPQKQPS
The experiment is described as follows: Inhibition of rat FAAH.

As usually defined, the IC50 is the point on the concentration scale where inhibition reaches its midpoint. Take `Cc1cc(C)cc(NC(=O)C2CCN(C(c3ccc(F)cc3)c3ccc(F)cc3)CC2)c1`: at Monoglyceride lipase, the IC50 was over 100 µM. As to `CNCCC(Oc1ccc(C(F)(F)F)cc1)c1ccccc1.Cl` (stereo unspecified) [FLUOXETINE HYDROCHLORIDE], the Time was determined as 92.19 s in the experiment on Mus musculus [1] and 92.64 s in the experiment on Mus musculus [2]. As to `O=C(Nc1ccccc1)C1CCN(C(c2ccc(F)cc2)c2ccc(F)cc2)CC1`, on Monoglyceride lipase, the IC50 is over 100 µM. Still for that read-out and setting: next, `O=C(Nc1cccc(Cl)c1)C1CCN(C(=O)c2ccc(Cl)cc2)CC1`: over 100 µM. The molecule `CC(C)(C)c1ccc(CN2CCN(C(=S)Sc3ccc([N+](=O)[O-])cc3[N+](=O)[O-])CC2)cc1` gave an IC50 in experiment [3] of 1.74 µM. As to `O=C(Nc1ccccc1)C1CCN(C(c2ccccc2)c2ccccc2)CC1`, the IC50 on Monoglyceride lipase is over 100 µM.

Regarding `COc1cccc(NC(=O)C2CCN(C(c3ccccc3)c3ccccc3)CC2)c1`, the IC50 on Monoglyceride lipase was over 100 µM. Same read-out and setting: next, `Cc1cc(C)cc(NC(=O)C2CCN(C(c3ccccc3)c3ccccc3)CC2)c1`: over 100 µM; `O=C(Nc1cccc(Cl)c1)C1CCN(C(=O)c2ccccc2O)CC1`: over 100 µM; `COc1cccc(C(=O)N2CCC(C(=O)Nc3cccc(O)c3)CC2)c1`: over 100 µM.
